# Assay results from patent US20170073679A1, “Compositions and Methods for Selective Delivery of Oligonucleotide Molecules to Cell Types” (nLife Therapeutics, S.L., priority 2012, published 2017).
# d = 2'-deoxy (DNA); m = 2'-O-methyl
# Key:
# [1] = biological target: human recombinant GHS-R1a (Homo sapiens, UniProt Q92847); details: cited from earlier work
# rat pituitary cells = details: read-out: EC50, stimulates GH release; cited from earlier work
# [2] = system: obese animals (high fat diet); assay: Physiological effect of tabimorelin conjugated antisense oligonucleotides in a high-fat diet model of obesity; type: in vivo; details: 10 doses in 12 days of 30 μg intranasally
# Experimental: Animals were fed a high fat diet (HFD) (TD.06414, 60% fat, Harlan) or a standard diet (Control diet: 2014, Harlan) for 12 weeks. Those obese animals that weighed more than the mean body weight of the lean animals plus 2 times the lean standard deviation were selected:
# Obese BW>lean BW mean+2×lean SD
# The day of administration animals were fasted for 8 hours. Under isofluorane anesthesia, 10 doses in 12 days of 30 μg of the following molecules were intranasally administered (5 μl per nostril): • Vehicle (VH) (1×PBS) • TAB-NS-ASO4 (NS)(Non-sense sequence directed with tabimorelin) • TAB-SOCS3-ASO4 (SOCS3)(antisense sequence against socs3 mRNA directed with tabimorelin) • TAB-PTP1B-ASO4 (PTP1B)(antisense sequence against ptp1b mRNA directed with tabimorelin
# Body weight and food intake were daily monitored. 48 hours after the last administration animals were sacrificed and tissues collected for further analysis.
# Chain of human recombinant GHS-R1a (Q92847 whole entry): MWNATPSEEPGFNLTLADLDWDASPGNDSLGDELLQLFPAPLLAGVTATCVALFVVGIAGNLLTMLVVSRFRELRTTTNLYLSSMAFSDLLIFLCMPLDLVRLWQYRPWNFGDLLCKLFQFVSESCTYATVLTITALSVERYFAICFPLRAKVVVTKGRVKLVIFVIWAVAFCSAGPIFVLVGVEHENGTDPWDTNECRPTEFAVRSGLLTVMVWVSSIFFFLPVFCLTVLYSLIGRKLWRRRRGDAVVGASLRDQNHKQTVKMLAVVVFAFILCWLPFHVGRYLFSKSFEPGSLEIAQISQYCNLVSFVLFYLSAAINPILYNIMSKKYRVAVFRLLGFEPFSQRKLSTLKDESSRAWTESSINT
Compound,Ki [1],EC50 (rat pituitary cells),Daily BW gain (mean of changes in daily body weight) [2],Cumulative body weight (BW) gain ([2]; vs VH and NS),Cumulative food intake (FI) ([2]; vs VH and NS),Daily FI (mean of daily food ingestion) ([2]; vs VH and NS)
CNC(=O)[C@@H](Cc1ccccc1)N(C)C(=O)[C@@H](Cc1ccc2ccccc2c1)N(C)C(=O)/C=C/CC(C)(C)N [Tabimorelin],50 nM,2.7 nM,,,,
"TAB-SOCS3-ASO4: antisense sequence against socs3 mRNA directed with tabimorelin; 20-mer with 10 DNA core and 2′-o-methyl flanks (antisense GUGGCGCTGGTCCGAGCTGT; sugars from the 5' end m5 d10 m5, backbone and methylation of C not given here; tabimorelin conjugate attached)",,,"not being significantly different between groups, a decrease was observed",gained significantly less weight than control animals,significantly decreased,decreased
